Measured values as given in patent US5585353A, “Antibiotic peptides containing D-amino acids” (The Rockefeller University, priority 1994, dated 1996).
Like-named read-outs stand apart in the source and are kept apart here. Residues, ends and D or L forms follow the SMILES beside them. No end group written: not given here.

How the values were obtained:
E. coli D21 = experiment: inhibition zone assay, lethal concentration; format: cell-based; conditions: E. coli D21, thin agarose plates
Description: (§1) Thin agar or agarose plates (8.5 cm diameter) were prepared with 6 ml of rich medium containing 100 ug/ml of streptomycin and 2×10^5 viable cells of a test organism resistant to streptomycin. Wells of 3.5 mm diameter were punched in the plates and 3 ul of serially diluted samples were placed in the wells. The diameters of the zones of inhibition around the wells were measured after overnight incubation at 30° or 37° C. For each peptide the squares of the zone diameters were plotted against the logarithm of the concentration, and from the slopes and intercepts the lethal concentrations were calculated as described by Hultmark (1983) EMBO J. 2, 571-76 or Hultmark et al (1982) Eur. J. Biochem. 127 207-217 each of which being incorporated herein by reference.
(§2) Lethal Concentrations calculated from inhibition zones on thin agarose
(§3) plates seeded with the respective organisms. D21: E. coli; OT97: P.

P. aeruginosa OT97 = experiment: inhibition zone assay, lethal concentration; format: cell-based; conditions: P. aeruginosa OT97, thin agarose plates
Description: as §1, §2, §3
(§4) aeruginosa; Bs11: B. subtilis; +ME: plates prepared with medium E; Staph: […]

B. subtilis Bs11 = experiment: inhibition zone assay, lethal concentration; format: cell-based; conditions: for Lethal Concentrations Bs11 +ME: B. subtilis Bs11, plates prepared with medium E; for Lethal Concentrations Bs11: B. subtilis Bs11, thin agarose plates
Description: as §1, §2, §4

S. aureus Cowan 1 = experiment: inhibition zone assay, lethal concentration; format: cell-based; conditions: S. aureus Cowan 1, thin agarose plates
Description: as §1, §2
aeruginosa; Bs11: B. subtilis; +ME: plates prepared with medium E; Staph:
(§5) S. aureus Cowan 1; Strep: S. pyogenes; SRC: Sheep red cells.; *all amino

S. pyogenes = experiment: inhibition zone assay, lethal concentration; format: cell-based; conditions: thin agarose plates
Description: as §1, §2, §5

Sheep red cells = experiment: inhibition zone assay, lethal concentration on sheep red cells; format: cell-based; conditions: thin agarose plates
Description: as §1, §2, §5

[1] = biological target: immune inhibitor A (In A) (Bacillus thuringiensis subsp. alesti, UniProt P23382); format: in vitro ADME; conditions: 20 min at 36° C.; for Zone of inhibition: E. coli D21 plates
Sequence of immune inhibitor A (In A) (Bacillus thuringiensis subsp. alesti, UniProt P23382) (P23382 41-687): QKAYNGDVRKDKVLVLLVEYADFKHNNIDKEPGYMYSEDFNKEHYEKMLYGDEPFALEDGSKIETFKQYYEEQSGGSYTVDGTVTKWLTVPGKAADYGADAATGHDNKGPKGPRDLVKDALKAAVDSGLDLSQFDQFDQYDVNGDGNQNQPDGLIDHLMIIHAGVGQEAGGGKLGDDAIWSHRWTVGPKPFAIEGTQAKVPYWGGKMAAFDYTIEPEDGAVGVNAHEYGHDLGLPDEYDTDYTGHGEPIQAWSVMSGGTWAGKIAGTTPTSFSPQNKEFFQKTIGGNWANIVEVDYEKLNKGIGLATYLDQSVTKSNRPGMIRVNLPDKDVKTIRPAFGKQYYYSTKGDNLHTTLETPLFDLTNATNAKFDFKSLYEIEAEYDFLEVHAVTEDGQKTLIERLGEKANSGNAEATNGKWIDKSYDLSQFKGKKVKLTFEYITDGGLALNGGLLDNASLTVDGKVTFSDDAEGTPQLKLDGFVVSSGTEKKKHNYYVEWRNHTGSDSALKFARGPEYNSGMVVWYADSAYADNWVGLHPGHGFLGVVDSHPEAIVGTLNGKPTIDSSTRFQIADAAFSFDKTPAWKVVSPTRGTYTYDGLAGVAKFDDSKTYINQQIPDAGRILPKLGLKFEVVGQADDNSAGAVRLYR
Description: (§6) FIGS. 1 and 2 graphically illustrate the resistance of the compounds of this invention to enzymatic hydrolysis by trypsin or immune inhibitor A (In A). The experiments were conducted as follows:
(§7) The original solutions of the enzymes contained 5 mg/ml in the case of trypsin and 0.1 mg/ml in the case of InA. These two samples were diluted as follows: A 10^-1, B 10^-2, C 10^-3 and D 10^-4. From each dilution, 2 ul were mixed with 2 ul of two peptides (D-CA and L-CA, both containing 1.3 ug/ul=162 pmol/ul). Control mixtures were made with 2 ul water and 2 ul peptide. All samples were incubated for 20 min at 36° C. Before and after the incubation, all samples were kept on ice. After the incubation 3 ul were placed in wells on plates seeded with E. coli D21 in order the determine the amount of antibiotic that was left. The diameter of the inhibition zone was recorded and compared with a previously prepared a standard curve. Results are as given in the table and illustrated in the figures.

[2] = tested on: immune inhibitor A (In A); format: in vitro ADME; conditions: InA series, Control (no Enzyme), 20 min at 36° C.; for Zone of inhibition: peptide with water
Description: as §6, §7

trypsin = experiment: proteolytic resistance to trypsin, residual antibiotic by inhibition zone on E. coli D21; format: in vitro ADME; conditions: 20 min at 36° C.
Description: as §6, §7

[3] = InA dilution A (10^-1 of 0.1 mg/ml)
[4] = Trypsin dilution A (10^-1 of 5 mg/ml), E. coli D21 plates
[5] = Trypsin dilution B (10^-2), E. coli D21 plates
[6] = Trypsin dilution C (10^-3), E. coli D21 plates
[7] = Trypsin dilution D (10^-4), E. coli D21 plates
[8] = Trypsin series, Control (no enzyme)
[9] = Trypsin series, Control (no enzyme), peptide with water

KWKLFKKIEKVGQNIRDGIIKAGPAVAVVGQATQIAK-NH2 [Compound 1, Cecropin A]
Lethal Concentrations D21 (E. coli D21): 0.2 µM | Lethal Concentrations OT97 (P. aeruginosa OT97): 1 µM | Lethal Concentrations Bs11 +ME (B. subtilis Bs11): 60 µM | Lethal Concentrations Bs11 (B. subtilis Bs11): 3 µM | Lethal Concentrations Staph (S. aureus Cowan 1): > 300 µM | Lethal Concentrations Strep (S. pyogenes): 5 µM | Lethal Concentrations SRC (Sheep red cells): > 200 µM | Amount of peptide left ([1]; InA dilution A (10^-1)): 0 pmol | Conc. ([1]; InA dilution A (10^-1)): 0 µM | Percent remaining ([1]; InA dilution A (10^-1)): 0% | Zone of inhibition [1, 3]: None | Amount of peptide left ([1]; InA dilution B (10^-2)): 316 pmol | Conc. ([1]; InA dilution B (10^-2)): 105 µM | Percent remaining ([1]; InA dilution B (10^-2)): 65% | Zone of inhibition ([1]; InA dilution B (10^-2)): 1.42 cm | Amount of peptide left ([1]; InA dilution C (10^-3)): 442 pmol | Conc. ([1]; InA dilution C (10^-3)): 147 µM | Percent remaining ([1]; InA dilution C (10^-3)): 91% | Zone of inhibition ([1]; InA dilution C (10^-3)): 1.48 cm | Amount of peptide left ([1]; InA dilution D (10^-4)): 469 pmol | Conc. ([1]; InA dilution D (10^-4)): 156 µM | Percent remaining ([1]; InA dilution D (10^-4)): 96% | Zone of inhibition ([1]; InA dilution D (10^-4)): 1.49 cm | Amount of peptide left [2]: 469 pmol | Conc. [2]: 156 µM | Percent remaining [2]: 96% | Zone of inhibition [2]: 1.49 cm | Amount of peptide left (trypsin; Trypsin dilution A (10^-1)): 0 pmol | Conc. (trypsin; Trypsin dilution A (10^-1)): 0 µM | Percent remaining (trypsin; Trypsin dilution A (10^-1)): 0% | Zone of inhibition (trypsin; [4]): None | Amount of peptide left (trypsin; Trypsin dilution B (10^-2)): 0 pmol | Conc. (trypsin; Trypsin dilution B (10^-2)): 0 µM | Percent remaining (trypsin; Trypsin dilution B (10^-2)): 0% | Zone of inhibition (trypsin; [5]): None | Amount of peptide left (trypsin; Trypsin dilution C (10^-3)): 34 pmol | Conc. (trypsin; Trypsin dilution C (10^-3)): 11 µM | Percent remaining (trypsin; Trypsin dilution C (10^-3)): 6.8% | Zone of inhibition (trypsin; [6]): 0.93 cm | Amount of peptide left (trypsin; Trypsin dilution D (10^-4)): 131 pmol | Conc. (trypsin; Trypsin dilution D (10^-4)): 44 µM | Percent remaining (trypsin; Trypsin dilution D (10^-4)): 27% | Zone of inhibition (trypsin; [7]): 1.25 cm | Amount of peptide left (trypsin; [8]): 373 pmol | Conc. (trypsin; [8]): 124 µM | Percent remaining (trypsin; [8]): 77% | Zone of inhibition (trypsin; [9]): 1.45 cm

CC[C@@H](C)[C@@H](NC(=O)CNC(=O)[C@@H](CC(=O)O)NC(=O)[C@@H](CCCNC(=N)N)NC(=O)[C@H](NC(=O)[C@@H](CC(N)=O)NC(=O)[C@@H](CCC(N)=O)NC(=O)CNC(=O)[C@H](NC(=O)[C@@H](CCCCN)NC(=O)[C@@H](CCC(=O)O)NC(=O)[C@H](NC(=O)[C@@H](CCCCN)NC(=O)[C@@H](CCCCN)NC(=O)[C@@H](Cc1ccccc1)NC(=O)[C@@H](CC(C)C)NC(=O)[C@@H](CCCCN)NC(=O)[C@@H](Cc1c[nH]c2ccccc12)NC(=O)[C@H](N)CCCCN)[C@H](C)CC)C(C)C)[C@H](C)CC)C(=O)N[C@@H](C(=O)N[C@H](CCCCN)C(=O)N[C@H](C)C(=O)NCC(=O)N1CCC[C@@H]1C(=O)N[C@H](C)C(=O)N[C@@H](C(=O)N[C@H](C)C(=O)N[C@@H](C(=O)N[C@@H](C(=O)NCC(=O)N[C@H](CCC(N)=O)C(=O)N[C@H](C)C(=O)N[C@@H](C(=O)N[C@H](CCC(N)=O)C(=O)N[C@@H](C(=O)N[C@H](C)C(=O)N[C@H](CCCCN)C(N)=O)[C@H](C)CC)[C@H](C)O)C(C)C)C(C)C)C(C)C)[C@H](C)CC [Compound 2] (HELM PEPTIDE1{[dK].[dW].[dK].[dL].[dF].[dK].[dK].[dI].[dE].[dK].[dV].G.[dQ].[dN].[dI].[dR].[dD].G.[dI].[dI].[dK].[dA].G.[dP].[dA].[dV].[dA].[dV].[dV].G.[dQ].[dA].[dT].[dQ].[dI].[dA].[dK].[am]}$$$$V2.0)
Lethal Concentrations D21 (E. coli D21): 0.3 µM | Lethal Concentrations OT97 (P. aeruginosa OT97): 0.8 µM | Lethal Concentrations Bs11 +ME (B. subtilis Bs11): 30 µM | Lethal Concentrations Bs11 (B. subtilis Bs11): 3 µM | Lethal Concentrations Staph (S. aureus Cowan 1): > 300 µM | Lethal Concentrations Strep (S. pyogenes): 2 µM | Lethal Concentrations SRC (Sheep red cells): > 300 µM | Amount of peptide left ([1]; InA dilution A (10^-1)): 512 pmol | Conc. ([1]; InA dilution A (10^-1)): 171 µM | Percent remaining ([1]; InA dilution A (10^-1)): 106% | Zone of inhibition [1, 3]: 1.54 cm | Amount of peptide left ([1]; InA dilution B (10^-2)): 468 pmol | Conc. ([1]; InA dilution B (10^-2)): 156 µM | Percent remaining ([1]; InA dilution B (10^-2)): 96% | Zone of inhibition ([1]; InA dilution B (10^-2)): 1.52 cm | Amount of peptide left ([1]; InA dilution C (10^-3)): 468 pmol | Conc. ([1]; InA dilution C (10^-3)): 156 µM | Percent remaining ([1]; InA dilution C (10^-3)): 96% | Zone of inhibition ([1]; InA dilution C (10^-3)): 1.52 cm | Amount of peptide left ([1]; InA dilution D (10^-4)): 448 pmol | Conc. ([1]; InA dilution D (10^-4)): 149 µM | Percent remaining ([1]; InA dilution D (10^-4)): 92% | Zone of inhibition ([1]; InA dilution D (10^-4)): 1.51 cm | Amount of peptide left [2]: 535 pmol | Conc. [2]: 178 µM | Percent remaining [2]: 110% | Zone of inhibition [2]: 1.55 cm | Amount of peptide left (trypsin; Trypsin dilution A (10^-1)): 535 pmol | Conc. (trypsin; Trypsin dilution A (10^-1)): 178 µM | Percent remaining (trypsin; Trypsin dilution A (10^-1)): 110% | Zone of inhibition (trypsin; [4]): 1.55 cm | Amount of peptide left (trypsin; Trypsin dilution B (10^-2)): 489 pmol | Conc. (trypsin; Trypsin dilution B (10^-2)): 163 µM | Percent remaining (trypsin; Trypsin dilution B (10^-2)): 101% | Zone of inhibition (trypsin; [5]): 1.53 cm | Amount of peptide left (trypsin; Trypsin dilution C (10^-3)): 512 pmol | Conc. (trypsin; Trypsin dilution C (10^-3)): 171 µM | Percent remaining (trypsin; Trypsin dilution C (10^-3)): 106% | Zone of inhibition (trypsin; [6]): 1.54 cm | Amount of peptide left (trypsin; Trypsin dilution D (10^-4)): 489 pmol | Conc. (trypsin; Trypsin dilution D (10^-4)): 163 µM | Percent remaining (trypsin; Trypsin dilution D (10^-4)): 101% | Zone of inhibition (trypsin; [7]): 1.53 cm | Amount of peptide left (trypsin; [8]): 512 pmol | Conc. (trypsin; [8]): 171 µM | Percent remaining (trypsin; [8]): 106% | Zone of inhibition (trypsin; [9]): 1.54 cm
